In US6242440A, “Synergistic compositions comprising an oxathiazine and a benzothiophene-2-carboxamide-S,S-dioxide” (Janssen Pharmaceutica N.V., priority 1997, dated 2001):

Legend:
[1] = test system: Aspergillus; assay: wood stick test (Scots Pine); assay type: cell-based, Aspergillus niger
Experimental: (§1) Oven-dried wood sticks (50×12×2 mm) of Scots Pine (Pinus sylvestris) were dipped during 3 hours in a methanol solution comprising a compound of formula (I), a compound of formula (II), or a combination of a compound of formula (I) and a compound of formula (II), and allowed to dry overnight in a sterile laminar air flow. In each Petri dish one stick was placed on culture medium, PDA PS (Potato Dextrose Agar containing 60 mg penicillin and 200 mg streptomycin), previously seeded with inoculum. Two drops of fungal or spore suspension were pipetted on the upper surface of the stick The Petri dishes were incubated at 22° C. and 70% relative humidity. The test was evaluated after sufficient growth of the fungus on the control sticks. The following score system was used:
(§2) 0: sticks free of fungal growth
(§3) 1: traces of growth on the stick
(§4) 2: slight growth (5 to 25% of the surface covered)
(§5) 3 : moderate growth (25 to 50% of the surface covered)
(§6) 4: vigorous to maximum growth (more tha 50% covered)
(§7) To calculate synergism results were converted to the next artificial activities:
(§8) Yhe expected activities E were calculated by using the so-called formula of Colby: (Colby, S. R. Weeds 1967, 15: 20-22), [formula]
(§9) wherein X and Y express the relative activities obtained for each of the active ingredients. A synergistic effect can be acknowledged if the found activity exceeds calculated activity.
(§10) The compound of formula (I) used in the experiment was 3-benzo[b]-thien-2-yl)-5,6-dihydro-1,4,2-oxathiazine 4-oxide, i.e. compound (1). The compound of formula (II) used in the experiment was N-cyclohexyl-benzothiophene-2-carboxamide-S,S-dioxide, i.e. compound (2).

[2] = test system: Sclerophoma; assay: wood stick test (Scots Pine); assay type: cell-based, Sclerophoma entoxylina
Experimental: as §1, §2, §3, §4, §5, §6, §7, §8, §9, §10

[3] = test system: Aureobasidium; assay: wood stick test (Scots Pine); assay type: cell-based, Aureobasidium pullulans; conditions: read-out: measured (relative) activity %
Experimental: as §1, §2, §3, §4, §5, §6, §7, §8, §9, §10

[4] = test system: Aspergillus niger; assay: poison plate assay, mycelial growth and sporulation; assay type: cell-based
Experimental: (§11) The efficacy of the active ingredients against mycelial growth and sporulation of Aureobasidium pullulans, Aspergillus niger, Scierophoma entoxylina, Trichodenna viride, was determined in the poison plate assay. The required concentrations of the fungicide(s) were obtained by diluting the active ingredients (I), (II) or the combination of (I) and (II) in dimethyl sulfoxide (DMSO) at 800 times the final test concentration. The stock solutions in DMSO were pipetted into Petri-dishes. Malt extract agar (3%) was added aseptically and uniform distribution was obtained by shaking. Each plate was spot inoculated with a spore or mycelial suspension. After incubation at 22° C. and 70% relative humidity for a period long enough to allow complete growth of controls, diameters of colonies were measured. Relative activities were calculated by taking the absence of fungal growth (diameter 0 mm) as 100%. From the activity of the active ingredients alone, the expected activities E were calculated by using the so-called formula of Colby: (Colby, S. R. Weeds 1967, 15: 20-22), [formula]
as §9
(§12) Equal efficacy was observed whenever complete inhibition of fungal growth occurred by one of the active ingredients (I) or (II) alone. The compound of formula (I) used in the experiment was 3-benzo[b]-thien-2-yl)-5,6-dihydro-1,4,2-oxathiazine 4-oxide, i.e. compound (1). The compound of formula (II) used in the experiment was N-cyclohexyl-benzothiophene-2-carboxamide-S,S-dioxide, i.e. compound (2).

[5] = test system: Sclerophoma entoxylina; assay: as above; assay type: cell-based
Experimental: as §11, §9, §12

[6] = test system: Aureobasidium pullulans; assay: as above; assay type: cell-based
Experimental: as §11, §9, §12

[7] = test system: Trichoderma viride; assay: as above; assay type: cell-based
Experimental: as §11, §9, §12

In the case of O=C(NC1CCCCC1)C1=Cc2ccccc2S1(=O)=O [compound (2), N-cyclohexyl-benzothiophene-2-carboxamide-S,S-dioxide], the “% overgrown of the sticks” value ([1]; (2) 200 ppm) is reported as 100%, the stick test scores ([1]; (2) 200 ppm) is reported as 4 (vigorous to maximum growth (more tha 50% covered)) and the “% overgrown of the sticks” value ([1]; (2) 400 ppm) is reported as 100%. The stick test scores ([1]; (2) 400 ppm) was 4 (vigorous to maximum growth (more tha 50% covered)), the “% overgrown of the sticks” value ([1]; (2) 800 ppm) was 100% and the stick test scores ([1]; (2) 800 ppm) was 4 (vigorous to maximum growth (more tha 50% covered)). For the same molecule, the activity at 200 ppm ([1]; Aspergillus, (2) 200 ppm, read-out: measured (relative) activity %) was 0%, the activity at 400 ppm ([1]; Aspergillus, (2) 400 ppm, read-out: measured (relative) activity %) was 0% and the activity at 800 ppm ([1]; Aspergillus, (2) 800 ppm, read-out: measured (relative) activity %) was 0%. For the same molecule, the “% overgrown of the sticks” value ([2]; (2) 200 ppm) was 100%, the stick test scores ([2]; (2) 200 ppm) was 4 (vigorous to maximum growth (more tha 50% covered)) and the “% overgrown of the sticks” value ([2]; (2) 400 ppm) was 100%. For the same molecule, the stick test scores ([2]; (2) 400 ppm) was 4 (vigorous to maximum growth (more tha 50% covered)), the “% overgrown of the sticks” value ([2]; (2) 800 ppm) was 25% and the stick test scores ([2]; (2) 800 ppm) was 2 (slight growth (5 to 25% of the surface covered)). It also gave an activity at 200 ppm ([2]; Sclerophoma entoxylina, (2) 200 ppm, read-out: measured (relative) activity %) of 0%, an activity at 400 ppm ([2]; Sclerophoma entoxylina, (2) 400 ppm, read-out: measured (relative) activity %) of 0% and an activity at 800 ppm ([2]; Sclerophoma entoxylina, (2) 800 ppm, read-out: measured (relative) activity %) of 75%. The activity at 200 ppm ([3]; (2) 200 ppm) was 0%, the activity at 400 ppm ([3]; (2) 400 ppm) was 75% and the activity at 800 ppm ([3]; (2) 800 ppm) was 95%. It also gave an activity measured ([4]; Exp 1, 5 days, (2) 2.5 mg/l) of 0%, a growth ([4]; Exp 1, 5 days, (2) 2.5 mg/l) of 44 mm and an activity measured ([4]; Exp 1, 5 days, (2) 5 mg/l) of 5%. The growth ([4]; Exp 1, 5 days, (2) 5 mg/l) was 42 mm, the activity measured ([4]; Exp 1, 5 days, (2) 10 mg/l) was 23% and the growth ([4]; Exp 1, 5 days, (2) 10 mg/l) was 34 mm. It also gave an activity measured ([4]; Exp 1, 5 days, (2) 20 mg/l) of 70%, a growth ([4]; Exp 1, 5 days, (2) 20 mg/l) of 13 mm and an activity measured ([4]; Exp 2, 7 days, (2) 2.5 mg/l) of 2%. For the same molecule, the growth ([4]; Exp 2, 7 days, (2) 2.5 mg/l) was 44 mm, the activity measured ([4]; Exp 2, 7 days, (2) 5 mg/l) was 2% and the growth ([4]; Exp 2, 7 days, (2) 5 mg/l) was 44 mm. The activity measured ([4]; Exp 2, 7 days, (2) 10 mg/l) was 9%, the growth ([4]; Exp 2, 7 days, (2) 10 mg/l) was 41 mm and the activity measured ([4]; Exp 2, 7 days, (2) 20 mg/l) was 36%. It also gave a growth ([4]; Exp 2, 7 days, (2) 20 mg/l) of 29 mm, an activity measured ([5]; Exp 1, 5 days, (2) 2.5 mg/l) of 7% and a growth ([5]; Exp 1, 5 days, (2) 2.5 mg/l) of 40 mm. It also gave an activity measured ([5]; Exp 1, 5 days, (2) 5 mg/l) of 16%, a growth ([5]; Exp 1, 5 days, (2) 5 mg/l) of 36 mm and an activity measured ([5]; Exp 1, 5 days, (2) 10 mg/l) of 19%. The growth ([5]; Exp 1, 5 days, (2) 10 mg/l) was 35 mm, the activity measured ([5]; Exp 1, 5 days, (2) 20 mg/l) was 40% and the growth ([5]; Exp 1, 5 days, (2) 20 mg/l) was 26 mm. For the same molecule, the activity measured ([5]; Exp 2, 7 days, (2) 2.5 mg/l) was 2%, the growth ([5]; Exp 2, 7 days, (2) 2.5 mg/l) was 48 mm and the activity measured ([5]; Exp 2, 7 days, (2) 5 mg/l) was 4%. For the same molecule, the growth ([5]; Exp 2, 7 days, (2) 5 mg/l) was 47 mm, the activity measured ([5]; Exp 2, 7 days, (2) 10 mg/l) was 16% and the growth ([5]; Exp 2, 7 days, (2) 10 mg/l) was 41 mm. It also gave an activity measured ([5]; Exp 2, 7 days, (2) 20 mg/l) of 29%, a growth ([5]; Exp 2, 7 days, (2) 20 mg/l) of 35 mm and an activity measured ([6]; Exp 1, 5 days, (2) 2.5 mg/l) of 8%. For the same molecule, the growth ([6]; Exp 1, 5 days, (2) 2.5 mg/l) was 35 mm, the activity measured ([6]; Exp 1, 5 days, (2) 5 mg/l) was 16% and the growth ([6]; Exp 1, 5 days, (2) 5 mg/l) was 32 mm. For the same molecule, the activity measured ([6]; Exp 1, 5 days, (2) 10 mg/l) was 37%, the growth ([6]; Exp 1, 5 days, (2) 10 mg/l) was 24 mm and the activity measured ([6]; Exp 1, 5 days, (2) 20 mg/l) was 53%. The growth ([6]; Exp 1, 5 days, (2) 20 mg/l) was 18 mm, the activity measured ([6]; Exp 2, 7 days, (2) 2.5 mg/l) was 2% and the growth ([6]; Exp 2, 7 days, (2) 2.5 mg/l) was 47 mm. The activity measured ([6]; Exp 2, 7 days, (2) 5 mg/l) was 6%, the growth ([6]; Exp 2, 7 days, (2) 5 mg/l) was 45 mm and the activity measured ([6]; Exp 2, 7 days, (2) 10 mg/l) was 8%. For the same molecule, the growth ([6]; Exp 2, 7 days, (2) 10 mg/l) was 44 mm, the activity measured ([6]; Exp 2, 7 days, (2) 20 mg/l) was 23% and the growth ([6]; Exp 2, 7 days, (2) 20 mg/l) was 37 mm. For the same molecule, the activity measured ([7]; Exp 1, 5 days, (2) 2.5 mg/l) was 0%, the growth ([7]; Exp 1, 5 days, (2) 2.5 mg/l) was 49 mm and the activity measured ([7]; Exp 1, 5 days, (2) 5 mg/l) was 0%. For the same molecule, the growth ([7]; Exp 1, 5 days, (2) 5 mg/l) was 49 mm, the activity measured ([7]; Exp 1, 5 days, (2) 10 mg/l) was 0% and the growth ([7]; Exp 1, 5 days, (2) 10 mg/l) was 49 mm. The activity measured ([7]; Exp 1, 5 days, (2) 20 mg/l) was 14%, the growth ([7]; Exp 1, 5 days, (2) 20 mg/l) was 42 mm and the activity measured ([7]; Exp 2, 7 days, (2) 2.5 mg/l) was 0%. The growth ([7]; Exp 2, 7 days, (2) 2.5 mg/l) was 49 mm, the activity measured ([7]; Exp 2, 7 days, (2) 5 mg/l) was 0% and the growth ([7]; Exp 2, 7 days, (2) 5 mg/l) was 49 mm. For the same molecule, the activity measured ([7]; Exp 2, 7 days, (2) 10 mg/l) was 8%, the growth ([7]; Exp 2, 7 days, (2) 10 mg/l) was 45 mm and the activity measured ([7]; Exp 2, 7 days, (2) 20 mg/l) was 24%. For the same molecule, the growth ([7]; Exp 2, 7 days, (2) 20 mg/l) was 37 mm.
